In data set [1] the test system is HepG-2 cell line. Nature of the data set: MTT cytotoxicity assay, HepG-2. The class given is cell-based, human. The following applies: read-out: In vitro cytotoxic activity IC50 HepG-2.
Data set [2] has as its system Caco-2 cell line. The data set is described as follows: MTT cytotoxicity assay, Caco-2. The following applies: read-out: In vitro cytotoxic activity IC50 Caco-2. In general terms: Tetrazolium assays rely on reduction of a dye to a coloured formazan, in cell work by metabolically active cells.
In data set [3] the test system is Caco-2 cell line. Nature of the data set: Flow cytometry cell cycle analysis. The settings on record: Caco-2, treated at IC50 7.83 μM. It counts as cell-based, human.
For data set [4], the system named is Caco-2 cells. The data set is described as follows: Annexin-V/propidium iodide apoptosis assay. The class given is cell-based, human.
The target in data set [5] is EGFR^Wt (Homo sapiens, UniProt P00533). The data set is described as follows: EGFR kinase assay kit. It counts as biochemical. The following applies: for IC50: Enzyme inhibitory activity IC50 EGFR^Wt, average of three independent tests; for inhibition at 10 µM: read-out: EGFR^Wt Inhibitory%.
For data set [6], the target named is VEGFR-2 (Homo sapiens, UniProt P35968). Nature of the data set: biochemical.

Values joined by “and” are separate entries in the source; they are usually repeats but may differ in a detail not shown here. Identical values can stand only once. Like-named read-outs stand apart in the source and are kept apart here.

The values below come from paper PMC10069231 (RSC Advances, 2023).

Sequence of EGFR^Wt (P00533 25-1210): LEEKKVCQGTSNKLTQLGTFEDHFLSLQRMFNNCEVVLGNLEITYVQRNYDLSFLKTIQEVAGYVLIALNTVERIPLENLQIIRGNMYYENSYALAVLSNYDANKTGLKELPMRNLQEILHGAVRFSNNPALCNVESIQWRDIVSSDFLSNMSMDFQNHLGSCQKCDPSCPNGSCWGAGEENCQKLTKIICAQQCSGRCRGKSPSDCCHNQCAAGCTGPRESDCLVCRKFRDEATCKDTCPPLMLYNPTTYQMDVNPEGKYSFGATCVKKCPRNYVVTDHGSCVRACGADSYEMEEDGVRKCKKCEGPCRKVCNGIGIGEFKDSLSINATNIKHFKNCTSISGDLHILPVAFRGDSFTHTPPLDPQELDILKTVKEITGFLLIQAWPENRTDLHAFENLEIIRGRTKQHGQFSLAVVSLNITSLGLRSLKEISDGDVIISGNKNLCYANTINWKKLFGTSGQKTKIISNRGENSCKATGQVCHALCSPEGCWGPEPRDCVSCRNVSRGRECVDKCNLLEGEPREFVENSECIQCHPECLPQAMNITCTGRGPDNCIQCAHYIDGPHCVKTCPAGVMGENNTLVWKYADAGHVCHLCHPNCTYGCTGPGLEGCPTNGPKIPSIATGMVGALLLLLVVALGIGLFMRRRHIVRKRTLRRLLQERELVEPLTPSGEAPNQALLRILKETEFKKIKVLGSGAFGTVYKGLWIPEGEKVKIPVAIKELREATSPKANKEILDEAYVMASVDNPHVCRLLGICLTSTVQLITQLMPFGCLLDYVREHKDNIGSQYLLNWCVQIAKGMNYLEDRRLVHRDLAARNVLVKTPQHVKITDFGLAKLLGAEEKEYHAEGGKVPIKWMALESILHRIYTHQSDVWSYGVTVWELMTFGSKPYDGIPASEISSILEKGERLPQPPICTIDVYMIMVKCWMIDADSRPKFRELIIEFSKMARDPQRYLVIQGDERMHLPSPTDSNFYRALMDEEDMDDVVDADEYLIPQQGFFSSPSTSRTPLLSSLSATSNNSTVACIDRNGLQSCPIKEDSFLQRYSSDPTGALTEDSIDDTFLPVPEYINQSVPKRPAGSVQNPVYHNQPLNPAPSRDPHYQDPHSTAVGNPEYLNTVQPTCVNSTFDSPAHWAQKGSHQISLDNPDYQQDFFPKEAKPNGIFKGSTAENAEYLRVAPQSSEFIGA
Sequence of VEGFR-2 (P35968 20-1356): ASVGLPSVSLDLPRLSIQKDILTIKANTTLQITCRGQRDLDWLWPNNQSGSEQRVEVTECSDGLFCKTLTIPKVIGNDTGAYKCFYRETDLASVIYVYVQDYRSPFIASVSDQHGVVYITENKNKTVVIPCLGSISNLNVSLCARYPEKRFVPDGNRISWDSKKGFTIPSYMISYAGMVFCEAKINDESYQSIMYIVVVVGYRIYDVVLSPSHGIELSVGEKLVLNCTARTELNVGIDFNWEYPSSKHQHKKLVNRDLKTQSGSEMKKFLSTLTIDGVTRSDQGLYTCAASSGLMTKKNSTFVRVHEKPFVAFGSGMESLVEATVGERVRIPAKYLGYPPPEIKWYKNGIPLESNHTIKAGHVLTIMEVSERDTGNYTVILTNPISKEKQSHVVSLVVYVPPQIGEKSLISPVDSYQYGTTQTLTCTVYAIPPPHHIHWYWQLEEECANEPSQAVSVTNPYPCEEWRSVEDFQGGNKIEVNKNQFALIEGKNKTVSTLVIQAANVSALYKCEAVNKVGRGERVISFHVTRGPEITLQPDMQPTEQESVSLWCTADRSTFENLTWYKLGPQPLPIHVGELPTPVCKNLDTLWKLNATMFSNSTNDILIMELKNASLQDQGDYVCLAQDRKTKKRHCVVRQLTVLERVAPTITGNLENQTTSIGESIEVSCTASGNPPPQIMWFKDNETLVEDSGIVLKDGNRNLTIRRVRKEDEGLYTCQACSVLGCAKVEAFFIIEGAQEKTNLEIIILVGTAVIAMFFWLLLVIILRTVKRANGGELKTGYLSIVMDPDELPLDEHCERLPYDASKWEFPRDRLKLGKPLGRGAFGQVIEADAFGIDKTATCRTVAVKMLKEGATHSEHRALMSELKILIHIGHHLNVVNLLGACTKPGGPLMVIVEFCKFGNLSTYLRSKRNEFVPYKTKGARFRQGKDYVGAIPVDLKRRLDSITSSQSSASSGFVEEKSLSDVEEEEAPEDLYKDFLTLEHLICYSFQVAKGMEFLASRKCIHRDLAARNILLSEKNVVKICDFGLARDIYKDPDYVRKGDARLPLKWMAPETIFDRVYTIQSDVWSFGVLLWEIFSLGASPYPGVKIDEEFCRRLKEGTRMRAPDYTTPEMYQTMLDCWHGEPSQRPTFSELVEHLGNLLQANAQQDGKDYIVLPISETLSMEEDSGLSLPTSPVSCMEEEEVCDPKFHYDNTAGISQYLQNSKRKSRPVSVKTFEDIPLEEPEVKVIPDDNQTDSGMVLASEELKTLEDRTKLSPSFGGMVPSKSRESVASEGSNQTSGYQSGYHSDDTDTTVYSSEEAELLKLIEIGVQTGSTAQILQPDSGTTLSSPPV

One may read the IC50 as the point on the concentration scale where inhibition reaches its midpoint. Regarding `CCOC(=O)c1ccc(-n2c(C)cc(C)c(C#N)c2=O)cc1` [Compound 2, ethyl 4-(3-cyano-4,6-dimethyl-2-oxopyridin-1(2H)-yl)benzoate], the IC50 in data set [1] (Homo sapiens, HepG2, 24 h) was found to be 51.6 ± 2.9 µM; in data set [2] (Homo sapiens, Caco-2, 24 h), 41.5 ± 2.5 µM.
Consider `CCOC(=O)c1ccc(-n2c(C)cc(/C=C/c3ccc(OC)cc3)c(C#N)c2=O)cc1` [Compound 3a, Ethyl (E)-4-(3-cyano-4-(4-methoxystyryl)-6-methyl-2-oxopyridin-1(2H)-yl)benzoate], for which the IC50 worked out at 78.2 ± 3.8 µM in data set [1] (Homo sapiens, HepG2, 24 h) and 84.4 ± 4 µM in data set [2] (Homo sapiens, Caco-2, 24 h).
In the case of `CCOC(=O)c1ccc(-n2c(C)cc(/C=C/c3ccc(OCC)cc3)c(C#N)c2=O)cc1` [Compound 3b, Ethyl (E)-4-(3-cyano-4-(4-ethoxystyryl)-6-methyl-2-oxopyridin-1(2H)-yl)benzoate], the IC50 in data set [1] (Homo sapiens, HepG2, 24 h) was determined as 63.1 ± 3.4 µM; in data set [2] (Homo sapiens, Caco-2, 24 h) it was 75.7 ± 3.5 µM.
For the molecule `CCOC(=O)c1ccc(NC(=O)C2=C3C(=Nc4ccccc43)NC2=O)cc1` [Compound 6, ethyl 4-(2-oxo-1,2-dihydropyrrolo[2,3-b]indole-3-carboxamido)benzoate], the IC50 came out at 39.3 ± 2.5 µM in data set [1] (Homo sapiens, HepG2, 24 h) and 45.4 ± 2.7 µM in data set [2] (Homo sapiens, Caco-2, 24 h).
For the molecule `CCOC(=O)c1ccc(N2C(N)=C(C#N)C3(C(=O)Nc4ccccc43)C(C#N)=C2O)cc1` (stereo not shown) [Compound 7, Ethyl 4-(2′-amino-3′,5′-dicyano-6′-hydroxy-2-oxo-1′H-spiro[indoline-3,4′-pyridin]-1′-yl)benzoate], the IC50 in data set [1] (Homo sapiens, HepG2, 24 h) was 8.9 ± 0.6 µM; in data set [5], < 0.25 µM and 0.124 µM; in data set [6] (Enzyme inhibitory activity IC50 VEGFR-2, average of three independent tests), 0.221 ± 0.009 µM; in data set [2] (Homo sapiens, Caco-2, 24 h), 7.83 ± 0.5 µM. The “Cell cycle distribution, S phase” value in data set [3] (untreated 31.18%) is given as 42.07%. For the same molecule, in data set [3] (untreated 54.69%), the “Cell cycle distribution, G0-G1” value came to 51.08%. In addition, the “Cell cycle distribution, G2/M” value in data set [3] (untreated […]%) worked out at 6.85%. In data set [4] (Caco-2, at IC50), the “Early apoptosis, increase compared to the control” value is on record as 67.60 folds. Moreover, the “Late apoptosis, increase compared to the control” value in data set [4] (Caco-2, at IC50) stood at 100.11 folds. The “Apoptosis Late” value in data set [4] (Caco-2, at IC50 for 24 h, control 0.17) is recorded as 17.02%. Moreover, the “Apoptosis Early” value in data set [4] (Caco-2, at IC50 for 24 h, control 0.33) is 22.31%. For the same molecule, the Necrosis in data set [4] (Caco-2, at IC50 for 24 h, control 1.42) is on record as 3.02%. The “Apoptosis Total” value in data set [4] (Caco-2, at IC50 for 24 h, control 1.92) turned out to be 42.35%. The inhibition at 10 µM was found to be 88.4% in data set [5] and 87% in data set [6] (read-out: VEGFR-2 Inhibitory%).
In the case of `CCOC(=O)C1=C(N)N(c2ccc(C(=O)OCC)cc2)C(O)=C(C#N)C12C(=O)Nc1ccccc12` (stereo not shown) [Compound 8, Ethyl 2′-amino-5′-cyano-1′-(4-(ethoxycarbonyl)phenyl)-6′-hydroxy-2-oxo-1′H spiro[indoline-3,4′-pyridine]-3′-carboxylate], the IC50 in data set [1] (Homo sapiens, HepG2, 24 h) came to 8.42 ± 0.7 µM; in data set [2] (Homo sapiens, Caco-2, 24 h), 13.6 ± 1.2 µM.
For the molecule `CCOC(=O)c1ccc(-n2c(N)c(C#N)c(CC#N)c(C#N)c2=O)cc1` [Compound 10, ethyl 4-(6-amino-3,5-dicyano-4-(cyanomethyl)-2-oxopyridin-1(2H)-yl)benzoate], the IC50 in data set [1] (Homo sapiens, HepG2, 24 h) came to 25.2 ± 1.9 µM; in data set [2] (Homo sapiens, Caco-2, 24 h), 37.8 ± 2.3 µM.
`CCOC(=O)c1ccc(-n2c(-c3ccc(C)cc3)cc(-c3ccc(O)cc3)c(C#N)c2=O)cc1` [Compound 11, Ethyl 4-(3-cyano-4-(4-hydroxyphenyl)-2-oxo-6-(p-tolyl)pyridin-1(2H)-yl)benzoate]: the IC50 in data set [1] (Homo sapiens, HepG2, 24 h) was 14.9 ± 1.2 µM; in data set [2] (Homo sapiens, Caco-2, 24 h), 19.2 ± 1.4 µM.
Take `COc1cccc2c1C(=O)c1c(O)c3c(c(O)c1C2=O)C[C@@](O)(C(=O)CO)C[C@@H]3O[C@H]1C[C@H](N)[C@H](O)[C@H](C)O1` [Doxorubicin, reference compound]: the half-maximal inhibitory concentration (IC50) in data set [1] (Homo sapiens, HepG2, 24 h) stood at 4.5 ± 0.2 µM. Moreover, in data set [5], the IC50 amounted to 0.349 ± 0.016 µM and the inhibition at 10 µM is 77.6%.
Regarding “ethyl 4-(3′,5′-dicyano-2′,6′-dihydroxy-1,3-dioxo-1,3-dihydro-1′H-spiro[indene-2,4′-pyridin]-1′-yl)benzoate [Compound 5]”, the IC50 in data set [1] (MTT, 24 h incubation, HepG-2) turned out to be 10.6 ± 0.8 µM; in data set [2] (MTT, 24 h incubation, Caco-2), 9.78 ± 0.7 µM.
